# Patent US20250109140A1, “5-[5-(PIPERIDIN-4-YL)THIENO[3,2-C]PYRAZOL-2-YL]INDAZOLE DERIVATIVES AND RELATED COMPOUNDS AS MODULATORS FOR SPLICING NUCLEIC ACIDS AND FOR THE TREATMENT OF PROLIFERATIVE DISEASES” (REMIX THERAPUTICS INC., priority 2022, published 2025)
# Counter-ions that a name gives are not always drawn. Like-named read-outs stand apart in the source and are kept apart here.
# What was measured:
# HTT mRNA = experiment: Splicing RT-qPCR assay, HTT canonical (CJ) and alternative (AJ) junction mRNA; format: cell-based; settings: Homo sapiens; for EC50: AC50 = 50% response in AJ mRNA increase
# How it was run: (§1)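 A673/K562; 11-pt 3-fold dil., top 10 uM final, ≤0.25% DMSO; 24 h, 37 °C, 5% CO2. Lysis, then RT-qPCR of CJ/AJ isoforms, ≥duplicate. ΔCt vs housekeeper (GAPDH/GUSB/PPIA), ΔΔCt vs DMSO, RQ = 2^(−ΔΔCt), expressed as % response.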
# HiBiT-tagged HTT protein = experiment: HiBiT protein abundance assay, HTT (K562 HiBiT knock-in cells); format: cell-based, human; settings: 24 hours treatment
# How it was run: (§2)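 Luminescence from the Nano-Glo HiBiT lytic reagent measured tagged protein remaining in knock-in K562 cells after 24 h compound exposure (top dose 10 µM final, 3-fold, 10 points). Responses normalized between parental K562 and DMSO-treated lines were fit by four-parameter logistic to interpolate the 50% concentration.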
# [1] = tested on: K562 (human chronic myelogenous leukemia) cells; experiment: Cell viability, Cell Titer Glo 2.0 assay, K562 cells; format: cell-based; settings: 72 hours
# How it was run: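 Luminescent Cell Titer Glo 2.0 readout after 72 h exposure (37° C, 5% CO2), medium-only wells as blank. Cells plated 500/well in IMDM with 10% FBS; test compounds diluted from DMSO series 1:100 into medium, 0.1% DMSO final.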
# Target C = experiment: HiBiT protein abundance assay, Target C (K562 HiBiT knock-in cells); format: cell-based, human; settings: 24 hours treatment
# How it was run: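 The readout was Nano-Glo HiBiT lytic luminescence after 24 h compound exposure at 37 °C, in 10000 K562 knock-in cells/well. Compounds ran as 10-point, 3-fold series, top final […], ≤0.25% DMSO. Responses were scaled between parental K562 and DMSO-treated controls, and IC50 was interpolated at 50% from four-parameter logistic curves.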
# Target C mRNA = experiment: Splicing RT-qPCR gene panel, Target C canonical junction (CJ) mRNA; format: cell-based; settings: Homo sapiens; Table 8; larger gene panel, decrease in CJ mRNA levels
# How it was run: as §1
# MYB mRNA = experiment: Splicing RT-qPCR assay, MYB canonical (CJ) and alternative (AJ) junction mRNA; format: cell-based; settings: Homo sapiens; for EC50: AC50 = 50% response in AJ mRNA increase
# How it was run: as §1
# HiBiT-tagged MYB protein = experiment: HiBiT protein abundance assay, MYB (K562 HiBiT knock-in cells); format: cell-based, human; settings: 24 hours treatment
# How it was run: as §2
# SMN2 mRNA = experiment: Splicing RT-qPCR gene panel, SMN2 canonical junction (CJ) mRNA; format: cell-based; settings: Homo sapiens; Table 8; larger gene panel, decrease in CJ mRNA levels
# How it was run: as §1
# [2] = Table 7, RT-qPCR, A673 or K562 cells, 24 hours treatment
# [3] = Table 7, IC50 = 50% response in CJ mRNA decrease, RT-qPCR, A673 or K562 cells, 24 hours treatment, read-out: HTT CJ
# [4] = Table 8, larger gene panel, decrease in CJ mRNA levels, read-out: HTT CJ IC50
# [5] = Table 7, IC50 = 50% response in CJ mRNA decrease, RT-qPCR, A673 or K562 cells, 24 hours treatment, read-out: MYB CJ
# [6] = Table 8, larger gene panel, decrease in CJ mRNA levels, read-out: MYB CJ IC50
SMILES,EC50 (HTT mRNA; [2]),IC50 (HTT mRNA; [3]),IC50 (HTT mRNA; [4]),IC50 (HiBiT-tagged HTT protein),IC50 [1],IC50 (Target C),IC50 (Target C mRNA),EC50 (MYB mRNA; [2]),IC50 (MYB mRNA; [5]),IC50 (MYB mRNA; [6]),IC50 (HiBiT-tagged MYB protein),IC50 (SMN2 mRNA)
Cn1cc2cc(-c3cc4cn(C5=CCOCC5)nc4s3)cc(F)c2n1 [Compound 177],> 10000 nM,> 10000 nM,> 10000 nM,> 10000 nM,> 10000 nM,> 10000 nM,> 10000 nM,> 10000 nM,> 10000 nM,> 10000 nM,> 10000 nM,> 10000 nM
"Cn1cc2cc(-c3cc4cn([C@@H]5CCNC5)nc4s3)cc(F)c2n1 [Compound 160, (R)-5-(7-fluoro-2-methyl-2H-indazol-5-yl)-2-(pyrrolidin-3-yl)-2H-thieno[2,3-c]pyrazole hydrochloride]",1000 to 10000 nM,1000 to 10000 nM,1000 to 10000 nM,1000 to 10000 nM,1000 to 10000 nM,> 10000 nM,> 10000 nM,1000 to 10000 nM,1000 to 10000 nM,1000 to 10000 nM,1000 to 10000 nM,1000 to 10000 nM
Cn1cc2cc(-n3cc4nc(C5CCNCC5)sc4n3)cc(F)c2n1 [Compound 1109],1000 to 10000 nM,1000 to 10000 nM,1000 to 10000 nM,1000 to 10000 nM,> 10000 nM,1000 to 10000 nM,> 10000 nM,1000 to 10000 nM,> 10000 nM,> 10000 nM,1000 to 10000 nM,1000 to 10000 nM
Cn1cc2cc(-c3cc4cn(C5CCNCC5)nc4s3)ccc2n1 [Compound 207],100 to 1000 nM,100 to 1000 nM,100 to 1000 nM,< 100 nM,1000 to 10000 nM,100 to 1000 nM,1000 to 10000 nM,1000 to 10000 nM,1000 to 10000 nM,1000 to 10000 nM,1000 to 10000 nM,< 100 nM
Cn1cc2cc(-c3cc4cn(C5CCNCC5)nc4s3)c(O)c(F)c2n1 [Compound 215],100 to 1000 nM,100 to 1000 nM,100 to 1000 nM,100 to 1000 nM,1000 to 10000 nM,1000 to 10000 nM,100 to 1000 nM,100 to 1000 nM,1000 to 10000 nM,100 to 1000 nM,1000 to 10000 nM,< 100 nM
Cn1cc2cc(-c3cc4cn([C@@H]5CCNC[C@@H]5F)nc4s3)cc(F)c2n1 [Compound 183],1000 to 10000 nM,100 to 1000 nM,1000 to 10000 nM,< 100 nM,100 to 1000 nM,< 100 nM,1000 to 10000 nM,1000 to 10000 nM,1000 to 10000 nM,1000 to 10000 nM,100 to 1000 nM,100 to 1000 nM
Cn1cc2cc(-c3nc4cn(C5CCNCC5)nc4s3)c(O)c(F)c2n1 [Compound 1107],100 to 1000 nM,100 to 1000 nM,100 to 1000 nM,100 to 1000 nM,1000 to 10000 nM,100 to 1000 nM,100 to 1000 nM,100 to 1000 nM,100 to 1000 nM,100 to 1000 nM,1000 to 10000 nM,< 100 nM
COc1c(-c2cc3cn(C4CCNCC4)nc3s2)cc2cn(C)nc2c1F [Compound 218],100 to 1000 nM,< 100 nM,100 to 1000 nM,< 100 nM,100 to 1000 nM,100 to 1000 nM,100 to 1000 nM,100 to 1000 nM,100 to 1000 nM,100 to 1000 nM,100 to 1000 nM,< 100 nM
Cn1cc2cc(-c3nc4cn(C5CCNCC5)nc4s3)c(O)cc2n1 [Compound 1110],100 to 1000 nM,100 to 1000 nM,< 100 nM,100 to 1000 nM,1000 to 10000 nM,1000 to 10000 nM,100 to 1000 nM,1000 to 10000 nM,1000 to 10000 nM,100 to 1000 nM,1000 to 10000 nM,< 100 nM
Cn1cc2cc(-c3cc4cn(C5CCNCC5)nc4s3)ncc2n1 [Compound 214],100 to 1000 nM,1000 to 10000 nM,100 to 1000 nM,1000 to 10000 nM,1000 to 10000 nM,1000 to 10000 nM,1000 to 10000 nM,1000 to 10000 nM,1000 to 10000 nM,1000 to 10000 nM,1000 to 10000 nM,100 to 1000 nM

# Continued, values first:
EC50 (HTT mRNA; [2]),IC50 (HTT mRNA; [3]),IC50 (HTT mRNA; [4]),IC50 (HiBiT-tagged HTT protein),IC50 [1],IC50 (Target C),IC50 (Target C mRNA),EC50 (MYB mRNA; [2]),IC50 (MYB mRNA; [5]),IC50 (MYB mRNA; [6]),IC50 (HiBiT-tagged MYB protein),IC50 (SMN2 mRNA),SMILES
< 100 nM,< 100 nM,< 100 nM,< 100 nM,100 to 1000 nM,< 100 nM,100 to 1000 nM,100 to 1000 nM,100 to 1000 nM,100 to 1000 nM,100 to 1000 nM,< 100 nM,Cc1cn2cc(-c3cc4cn(C5CCNCC5)nc4s3)cc(F)c2n1 [Compound 229]
1000 to 10000 nM,1000 to 10000 nM,1000 to 10000 nM,1000 to 10000 nM,1000 to 10000 nM,1000 to 10000 nM,1000 to 10000 nM,1000 to 10000 nM,1000 to 10000 nM,1000 to 10000 nM,1000 to 10000 nM,1000 to 10000 nM,Cc1cn2nc(-n3cc4sc(C5CCNCC5)cc4n3)nc2c(C)n1 [Compound 170]
1000 to 10000 nM,1000 to 10000 nM,1000 to 10000 nM,1000 to 10000 nM,1000 to 10000 nM,1000 to 10000 nM,1000 to 10000 nM,1000 to 10000 nM,1000 to 10000 nM,1000 to 10000 nM,1000 to 10000 nM,100 to 1000 nM,Cc1cn2cc(-c3cc4cn(C5CCNCC5)nc4s3)ncc2n1 [Compound 223]
1000 to 10000 nM,1000 to 10000 nM,1000 to 10000 nM,1000 to 10000 nM,1000 to 10000 nM,1000 to 10000 nM,1000 to 10000 nM,1000 to 10000 nM,1000 to 10000 nM,1000 to 10000 nM,1000 to 10000 nM,1000 to 10000 nM,Cn1cc2cc(-n3cc4cc(C5CCNCC5)sc4n3)c(O)cc2n1 [Compound 220]
1000 to 10000 nM,100 to 1000 nM,100 to 1000 nM,100 to 1000 nM,1000 to 10000 nM,1000 to 10000 nM,1000 to 10000 nM,1000 to 10000 nM,1000 to 10000 nM,1000 to 10000 nM,1000 to 10000 nM,100 to 1000 nM,Cc1cn2cc(-n3cc4cc(C5CCNCC5)sc4n3)nc2c(C)n1 [Compound 227]
100 to 1000 nM,100 to 1000 nM,100 to 1000 nM,100 to 1000 nM,100 to 1000 nM,100 to 1000 nM,100 to 1000 nM,100 to 1000 nM,100 to 1000 nM,100 to 1000 nM,100 to 1000 nM,100 to 1000 nM,Cc1cn2cc(-n3cc4cc(C5CCNCC5)sc4n3)ncc2n1 [Compound 158]
100 to 1000 nM,100 to 1000 nM,100 to 1000 nM,< 100 nM,100 to 1000 nM,100 to 1000 nM,1000 to 10000 nM,1000 to 10000 nM,1000 to 10000 nM,1000 to 10000 nM,100 to 1000 nM,< 100 nM,Cc1cn2cc(-n3cc4cc(C5CCNCC5)sc4n3)cc(C)c2n1 [Compound 155]
100 to 1000 nM,100 to 1000 nM,100 to 1000 nM,100 to 1000 nM,1000 to 10000 nM,100 to 1000 nM,1000 to 10000 nM,100 to 1000 nM,1000 to 10000 nM,100 to 1000 nM,1000 to 10000 nM,100 to 1000 nM,Cc1cn2cc(-n3cc4sc(C5CCNCC5)cc4n3)cc(Cl)c2n1 [Compound 172]
